Laboratory results as given in the Kinase Knowledgebase extract (Sharma et al. 2016).

Target: PIK3CG (human) (UniProt P48736)
Test: Inhibition of PIK3CG Kinase Activity

Sequence of PIK3CG (human) (P48736 whole entry, looked up): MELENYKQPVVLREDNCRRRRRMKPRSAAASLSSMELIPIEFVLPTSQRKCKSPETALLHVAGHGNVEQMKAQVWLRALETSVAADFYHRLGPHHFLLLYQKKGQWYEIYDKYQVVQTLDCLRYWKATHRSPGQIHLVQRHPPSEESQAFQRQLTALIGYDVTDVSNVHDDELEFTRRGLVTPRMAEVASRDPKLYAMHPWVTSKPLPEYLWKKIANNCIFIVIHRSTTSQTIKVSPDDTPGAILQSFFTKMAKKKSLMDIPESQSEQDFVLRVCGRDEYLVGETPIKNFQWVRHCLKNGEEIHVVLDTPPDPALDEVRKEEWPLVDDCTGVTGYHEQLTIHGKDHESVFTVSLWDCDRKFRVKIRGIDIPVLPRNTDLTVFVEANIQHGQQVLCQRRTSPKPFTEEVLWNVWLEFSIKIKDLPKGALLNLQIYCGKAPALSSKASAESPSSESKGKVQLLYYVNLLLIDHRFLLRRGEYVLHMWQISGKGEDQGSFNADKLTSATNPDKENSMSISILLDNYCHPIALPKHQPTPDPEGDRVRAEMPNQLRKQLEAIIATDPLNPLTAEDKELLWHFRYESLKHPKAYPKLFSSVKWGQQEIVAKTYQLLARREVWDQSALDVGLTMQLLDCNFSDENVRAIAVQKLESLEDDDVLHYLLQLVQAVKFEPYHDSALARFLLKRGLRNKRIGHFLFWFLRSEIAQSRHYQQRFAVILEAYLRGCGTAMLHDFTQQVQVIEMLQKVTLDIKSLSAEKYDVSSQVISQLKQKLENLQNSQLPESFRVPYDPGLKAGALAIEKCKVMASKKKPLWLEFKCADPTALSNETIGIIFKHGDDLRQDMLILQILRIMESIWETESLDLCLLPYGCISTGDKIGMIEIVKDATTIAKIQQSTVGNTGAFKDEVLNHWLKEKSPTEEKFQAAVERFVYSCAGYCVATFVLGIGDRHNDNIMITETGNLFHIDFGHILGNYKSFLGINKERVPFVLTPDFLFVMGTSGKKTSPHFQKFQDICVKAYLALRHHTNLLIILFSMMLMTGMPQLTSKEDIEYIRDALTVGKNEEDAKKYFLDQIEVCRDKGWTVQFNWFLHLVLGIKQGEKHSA

CC(=O)Nc1nc2c(s1)-c1c(c(C3CC3)nn1-c1ccc(CC(N)=O)cc1Cl)CC2 and CC(=O)Nc1nc2c(s1)-c1c(c(C3CC3)nn1-c1ccc(O)cc1Cl)CC2 cannot be ordered by IC50: less than 600 nM for the first, less than 60 nM for the second.

CC(=O)Nc1nc2c(s1)-c1c(c(C3CC3)nn1-c1ccc(C(=O)N(C)[C@H]3CC[C@@H](N4CCCC4)CC3)c(C)c1)CC2 and CC(=O)Nc1nc2c(s1)-c1c(c(C3CC3)nn1-c1ccc(C(=O)N(C)C3CCC(N4CCCCC4)CC3)c(F)c1)CC2 (centres undefined) cannot be ordered by IC50: less than 600 nM for the first, less than 600 nM for the second.

CC(=O)Nc1nc2c(s1)-c1c(c(C3CC3)nn1-c1ccc(NC(=O)C3CCN(C4CCCC4)CC3)cc1Cl)CC2 and CC(=O)Nc1nc2c(s1)-c1c(c(C3CC3)nn1-c1ccc(NCC3CCN(C4CCCC4)CC3)cc1Cl)CC2 cannot be ordered by IC50: less than 600 nM for the first, less than 600 nM for the second.

CC(=O)Nc1nc2c(s1)-c1c(c(C3CC3)nn1-c1ccc(C(=O)NCC3CCN(C4CCCC4)CC3)c(Cl)c1)CC2 and CC(=O)Nc1nc2c(s1)-c1c(c(C3CC3)nn1-c1ccc(C(=O)NC3CCN(C4CCCC4)CC3)c(Cl)c1)CC2 cannot be ordered by IC50: less than 600 nM for the first, less than 600 nM for the second.

CC(=O)Nc1nc2c(s1)-c1c(c(C3CC3)nn1-c1ccc(C(=O)NC3CCN(CC4CCCC4)CC3)cc1Cl)CC2 and CC(=O)Nc1nc2c(s1)-c1c(c(C3CC3)nn1-c1ccc(C(=O)NC3CCN(CC4CCCCC4)CC3)cc1Cl)CC2 cannot be ordered by IC50: less than 600 nM for the first, less than 600 nM for the second.

CC(=O)Nc1nc2c(s1)-c1c(c(C3(C)CC3)nn1-c1ccccc1Cl)CC2 and CC(=O)Nc1nc2c(s1)-c1c(c(C3(C)CC3)nn1-c1ccc(C(=O)N(C)[C@H]3CC[C@@H](N4CCCC4)CC3)cc1Cl)CC2 cannot be ordered by IC50: less than 600 nM for the first, less than 600 nM for the second.

CC(=O)Nc1nc2c(s1)-c1c(c(C3CC3)nn1-c1ccc(CC(=O)N[C@H]3CC[C@@H](N4CCCC4)CC3)cc1Cl)CC2 and CC(=O)Nc1nc2c(s1)-c1c(c(C3CC3)nn1-c1ccc(CC(=O)NC3CCN(C4CCCC4)CC3)cc1Cl)CC2 cannot be ordered by IC50: less than 600 nM for the first, less than 600 nM for the second.

CC(=O)Nc1nc2c(s1)-c1c(c(C3CC3)nn1-c1ccc(C(=O)N(C)[C@H]3CC[C@@H](N(C)CC4CCCC4)CC3)c(Cl)c1)CC2 and CC(=O)Nc1nc2c(s1)-c1c(c(C3CC3)nn1-c1ccc(C(=O)N(C)[C@H]3CC[C@@H](N(C)CC4CC4)CC3)c(Cl)c1)CC2 cannot be ordered by IC50: less than 600 nM for the first, less than 600 nM for the second.

CC(=O)Nc1nc2c(s1)-c1c(c(C3CC3)nn1-c1ccc(C(=O)NC3CCN(C4CCOCC4)CC3)c(C)c1)CC2 and CC(=O)Nc1nc2c(s1)-c1c(c(C3CC3)nn1-c1ccc(C(=O)NC3CCN(C4CCCC4)CC3)c(C)c1)CC2 cannot be ordered by IC50: less than 600 nM for the first, less than 600 nM for the second.

CC(=O)Nc1nc2c(s1)-c1c(c(C3CC3)nn1-c1ccc(C(=O)N[C@H]3CC[C@@H](N4CCCC4)CC3)cc1F)CC2 and CC(=O)Nc1nc2c(s1)-c1c(c(C3CCC3)nn1-c1ccc(C(=O)N[C@H]3CC[C@@H](N4CCCC4)CC3)cc1Cl)CC2 cannot be ordered by IC50: less than 600 nM for the first, less than 600 nM for the second.

CC(=O)Nc1nc2c(s1)-c1c(c(C3CC3)nn1-c1ccc(C(=O)N[C@H]3CC[C@@H](N4CCCC4)CC3)c(Cl)c1)CC2 and CC(=O)Nc1nc2c(s1)-c1c(c(C3CC3)nn1-c1ccc(C(=O)N[C@H]3CC[C@@H](N4CCOCC4)CC3)c(F)c1)CC2 cannot be ordered by IC50: less than 600 nM for the first, less than 600 nM for the second.

CCN(C(=O)c1ccc(-n2nc(C3CC3)c3c2-c2sc(NC(C)=O)nc2CC3)c(C)c1)[C@H]1CC[C@@H](N2CCCC2)CC1 and CC(=O)Nc1nc2c(s1)-c1c(c(C3CC3)nn1-c1ccc(C(=O)N(C)[C@H]3CC[C@@H](N4CCCCC4)CC3)cc1F)CC2 cannot be ordered by IC50: less than 600 nM for the first, less than 600 nM for the second.

CC(=O)Nc1nc2c(s1)-c1c(c(C3CC3)nn1-c1ccc(C(=O)N[C@H]3CC[C@@H](N(C)C)CC3)cc1Cl)CC2 and CC(=O)Nc1nc2c(s1)-c1c(c(C3CC3)nn1-c1ccc(C(=O)N[C@H]3CC[C@H](C(N)=O)CC3)cc1Cl)CC2 cannot be ordered by IC50: less than 600 nM for the first, less than 600 nM for the second.

CNC(=O)c1ccc(-n2nc(C3CCCC3)c3c2-c2sc(NC(C)=O)nc2CC3)c(Cl)c1 and CC(=O)Nc1nc2c(s1)-c1c(c(C3CC3)nn1-c1ccc(C(=O)N[C@@H]3CCN(C4CCCC4)C3)cc1Cl)CC2 cannot be ordered by IC50: less than 600 nM for the first, less than 600 nM for the second.

CC(=O)Nc1nc2c(s1)-c1c(c(C3CC3)nn1-c1ccc(C(=O)NC3CCN(CC4CCCC4)CC3)cc1F)CC2 and CC(=O)Nc1nc2c(s1)-c1c(c(C3CC3)nn1-c1ccc(C(=O)NC3CCN(CC4CCCC4)CC3)c(F)c1)CC2 cannot be ordered by IC50: less than 600 nM for the first, less than 600 nM for the second.

CC(=O)Nc1nc2c(s1)-c1c(c(C3CC3)nn1C1CCN(C(=O)N3CCN(C4CCCC4)CC3)CC1)CC2 and CC(=O)Nc1nc2c(s1)-c1c(c(C3CC3)nn1C1CCN(C(=O)N3CCN(C(C)C)CC3)CC1)CC2 cannot be ordered by IC50: less than 600 nM for the first, less than 600 nM for the second.

CC(=O)Nc1nc2c(s1)-c1c(c(C3CC3)nn1-c1ccc(C(=O)N(C)C3CCN(C)CC3)cc1Cl)CC2 and CC(=O)Nc1nc2c(s1)-c1c(c(C3CC3)nn1-c1ccc(C(=O)N(C)C3CCN(C4CCCC4)CC3)cc1Cl)CC2 cannot be ordered by IC50: less than 600 nM for the first, less than 600 nM for the second.

CC(=O)Nc1nc2c(s1)-c1c(c(C3CC3)nn1-c1ccc(C(=O)NC3CCN(C4CCCC4)CC3)cc1C)CC2 and CC(=O)Nc1nc2c(s1)-c1c(c(C3CC3)nn1-c1ccc(C(=O)NC3CCN(C4CCOCC4)CC3)cc1C)CC2 cannot be ordered by IC50: less than 600 nM for the first, less than 600 nM for the second.

CC(=O)Nc1nc2c(s1)-c1c(c(C3CC3)nn1-c1ccc(C(=O)N(C)[C@@H]3CCN(C4CCCC4)C3)cc1F)CC2 and CC(=O)Nc1nc2c(s1)-c1c(c(C3CC3)nn1-c1ccc(C(=O)N(C)[C@H]3CCN(C4CCCCC4)C3)cc1C)CC2 cannot be ordered by IC50: less than 600 nM for the first, less than 600 nM for the second.

CC(=O)Nc1nc2c(s1)-c1c(c(C3CC3)nn1C1CCC(C(=O)N(C)[C@H]3CC[C@@H](N4CCCC4)CC3)CC1)CC2 (some centres undefined) and CC(=O)Nc1nc2c(s1)-c1c(c(C3CC3)nn1C1CCC(C(=O)NC3CCN(C4CCCC4)CC3)CC1)CC2 (centres undefined) cannot be ordered by IC50: less than 600 nM for the first, less than 600 nM for the second.

CC(=O)Nc1nc2c(s1)-c1c(c(C3CC3)nn1-c1ccc(C(=O)N[C@@H]3CCN(CC4CCCC4)C3)c(Cl)c1)CC2 and CC(=O)Nc1nc2c(s1)-c1c(c(C3CC3)nn1-c1ccc(C(=O)NC[C@@H]3CCN(CC4CCCC4)C3)c(Cl)c1)CC2 cannot be ordered by IC50: less than 600 nM for the first, less than 600 nM for the second.

CC(=O)Nc1nc2c(s1)-c1c(c(C3CC3)nn1-c1ccc(C(=O)NC[C@@H]3CCCN3C3CCCC3)c(Cl)c1)CC2 and CC(=O)Nc1nc2c(s1)-c1c(c(C3CC3)nn1-c1ccc(C(=O)N(C)C[C@H]3CCN(C4CCCC4)C3)c(Cl)c1)CC2 cannot be ordered by IC50: less than 600 nM for the first, less than 600 nM for the second.

CC(=O)Nc1nc2c(s1)-c1c(c(C3CC3)nn1-c1ccc(C(=O)N3CCC(N4CCCC4)CC3)cc1Cl)CC2 and CC(=O)Nc1nc2c(s1)-c1c(c(C3CCC3)nn1-c1ccc(C(=O)N(C)[C@H]3CC[C@@H](N4CCCC4)CC3)cc1Cl)CC2 cannot be ordered by IC50: less than 600 nM for the first, less than 600 nM for the second.

CC(=O)Nc1nc2c(s1)-c1c(c(C3CC3)nn1-c1ccc(C(=O)N[C@H]3CC[C@@H](N(C)CC4CCCC4)CC3)cc1Cl)CC2 and CC(=O)Nc1nc2c(s1)-c1c(c(C3CC3)nn1-c1ccc(C(=O)N[C@H]3CC[C@@H](N(C)CC4CCCC4)CC3)cc1C)CC2 cannot be ordered by IC50: less than 600 nM for the first, less than 600 nM for the second.

CC(=O)Nc1nc2c(s1)-c1c(c(C3CC3)nn1-c1ccc(C(=O)N(C)[C@H]3CC[C@@H](N(C)CC4CCCC4)CC3)c(C)c1)CC2 and CC(=O)Nc1nc2c(s1)-c1c(c(C3CC3)nn1-c1ccc(C(=O)N(C)[C@H]3CC[C@@H](N(C)CC4CC4)CC3)c(C)c1)CC2 cannot be ordered by IC50: less than 600 nM for the first, less than 600 nM for the second.

CCCN1CCC(C(=O)N(C)c2ccc(-n3nc(C4CC4)c4c3-c3sc(NC(C)=O)nc3CC4)c(Cl)c2)CC1 and CC(=O)Nc1nc2c(s1)-c1c(c(C3CC3)nn1-c1ccc(NCC3CCN(C)CC3)cc1Cl)CC2 cannot be ordered by IC50: less than 600 nM for the first, less than 600 nM for the second.

CC(=O)Nc1nc2c(s1)-c1c(c(C3CCCC3)nn1-c1ccc(C(=O)NC3CCN(CC4CCCC4)CC3)cc1Cl)CC2 and CC(=O)Nc1nc2c(s1)-c1c(c(C3CC3)nn1-c1ccc(C(=O)NC3CCN(CC4CCCCC4)CC3)c(C)c1)CC2 cannot be ordered by IC50: less than 600 nM for the first, less than 600 nM for the second.

CC(=O)Nc1nc2c(s1)-c1c(c(C3CC3)nn1-c1ccc(C(=O)N(C)[C@H]3CC[C@@H](N(C)CC4CC4)CC3)cc1C)CC2 and CC(=O)Nc1nc2c(s1)-c1c(c(C3CC3)nn1-c1ccc(C(=O)N(C)[C@H]3CC[C@@H](N(C)CC4CC4)CC3)cc1Cl)CC2 cannot be ordered by IC50: less than 600 nM for the first, less than 600 nM for the second.

CC(=O)Nc1nc2c(s1)-c1c(c(C3CC3)nn1-c1ccc(C(=O)N(C)[C@H]3CC[C@@H](N(C)CC4CC4)CC3)c(F)c1)CC2 and CC(=O)Nc1nc2c(s1)-c1c(c(C3CC3)nn1-c1ccc(C(=O)N[C@H]3CC[C@@H](N(C)CC4CC4)CC3)cc1F)CC2 cannot be ordered by IC50: less than 600 nM for the first, less than 600 nM for the second.

CC(=O)Nc1nc2c(s1)-c1c(c(C3CC3)nn1-c1ccc(C(=O)N(C)C3CCN(C4CCCC4)CC3)c(C)c1)CC2 and COc1cc(-n2nc(C3CC3)c3c2-c2sc(NC(C)=O)nc2CC3)ccc1C(=O)N(C)C1CCN(C2CCCC2)CC1 cannot be ordered by IC50: less than 600 nM for the first, less than 600 nM for the second.

CC(=O)Nc1nc2c(s1)-c1c(c(C3CC3)nn1C1CCN(C(=O)C3CCCCC3)CC1)CC2 and CC(=O)Nc1nc2c(s1)-c1c(c(C3CC3)nn1-c1ccc(C(=O)NC3CCN(C4CCCCC4)CC3)c(F)c1)CC2 cannot be ordered by IC50: less than 600 nM for the first, less than 600 nM for the second.

CC(=O)Nc1nc2c(s1)-c1c(c(C3CC3)nn1-c1ccc(C(=O)NC3CCN(C4CCOCC4)CC3)cc1F)CC2 and CC(=O)Nc1nc2c(s1)-c1c(c(C3CC3)nn1-c1ccc(C(=O)N[C@H]3CC[C@@H](C(N)=O)CC3)cc1Cl)CC2 cannot be ordered by IC50: less than 600 nM for the first, less than 600 nM for the second.
